Assay results reported in the supplement of paper PMC4862054.

Assays:
Test in all cases: normalised viability (% of control), CellTiter-Blue; higher = more viable cells (about 100 = DMSO control)
Details in all cases: incubation time: 72 h
[1] = test system: CAL-148
How it was run: (§1)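 384-well plates were pre-loaded with compound in 5 µl medium before 20 µl of breast cancer cell suspension was seeded. Following 72 h incubation, 2.5 µl CellTiter-Blue reagent was added for 2 h at 37 °C. Fluorescence was read at 560/590 nm and plates were normalised to vehicle (100) and a positive kill control (0), checked by Z'-factor. Normalised viability is reported at a single listed concentration of the series.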

[2] = test system: MDA-MB-436
How it was run: as §1

[3] = test system: SK-BR-3
How it was run: as §1

[4] = test system: MFM-223
How it was run: as §1

[5] = test system: MDA-MB-453
How it was run: as §1

[6] = test system: CAL-120
How it was run: as §1

[7] = test system: CAL-85-1
How it was run: as §1

[8] = test system: BT-549
How it was run: as §1

[9] = test system: Hs578T
How it was run: as §1

[10] = test system: MDA-MB-231
Method: (§2)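 DSRT, CellTiter-Blue viability, 72 h incubation. Signal is normalised to DMSO and benzethonium chloride controls. Value is the normalised response at dose 3.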

[11] = test system: CAL-148; remark: listed apart in the source
Method: as §2

[12] = test system: HDQ-P1
Method: as §2

[13] = test system: HCC1937
Method: as §2

[14] = test system: HCC1143
Method: as §2

[15] = test system: MDA-MB-436; remark: listed apart in the source
Method: as §2

[16] = test system: SK-BR-3; remark: listed apart in the source
Method: as §2

[17] = test system: MDA-MB-468
Method: as §2

[18] = test system: HCC1599
Method: as §2

[19] = test system: MFM-223; remark: listed apart in the source
Method: as §2

[20] = test system: CAL-51
Method: as §2

[21] = test system: MDA-MB-453; remark: listed apart in the source
Method: as §2

[22] = test system: CAL-120; remark: listed apart in the source
Method: as §2

[23] = test system: BT-474
Method: as §2

[24] = test system: CAL-85-1; remark: listed apart in the source
Method: as §2

[25] = test system: DU-4475
Method: as §2

[26] = test system: BT-549; remark: listed apart in the source
Method: as §2

[27] = test system: Hs578T; remark: listed apart in the source
Method: as §2

COc1cc(Nc2c(C#N)cnc3cc(OCCCN4CCN(C)CC4)c(OC)cc23)c(Cl)cc1Cl [Bosutinib]
Details	normalised viability [%]
[1], 3 nM	77.2
[1], 30 nM	92.3
[1], 100 nM	87.6
[2], 10 nM	111
[2], 1000 nM	95
[2], 10000 nM	16.8
[3], 10 nM	99
[3], 1000 nM	86.3
[3], 10000 nM	1.28
[4], 10 nM	100
[4], 1000 nM	80.8
[4], 10000 nM	36.8
[5], 3 nM	120
[5], 30 nM	107
[5], 100 nM	105
[6], 10 nM	87.5
[6], 1000 nM	70.5
[6], 10000 nM	11.1
[7], 3 nM	92.2
[7], 30 nM	111
[7], 100 nM	96.8
[8], 10 nM	91.9
[8], 1000 nM	95.4
[8], 10000 nM	6.38
[9], 10 nM	120
[9], 1000 nM	98.2
[9], 10000 nM	27.4
[10], 100 nM	121
[11], 10 nM	84.6
[12], 10 nM	128
[13], 100 nM	98.2
[14], 100 nM	84.3
[15], 100 nM	130
[16], 100 nM	74.8
[17], 100 nM	107
[18], 100 nM	108
[19], 100 nM	90.3
[20], 10 nM	116
[21], 10 nM	104
[22], 100 nM	90.4
[23], 100 nM	103
[24], 10 nM	108
[25], 10 nM	109
[26], 100 nM	113
[27], 100 nM	106

Cn1cc(C2=C(c3cn(C4CCN(Cc5ccccn5)CC4)c4ccccc34)C(=O)NC2=O)c2ccccc21 [Enzastaurin]
Details	normalised viability [%]
[1], 3 nM	78.6
[1], 30 nM	80.2
[1], 100 nM	78.5
[2], 10 nM	127
[2], 1000 nM	56.1
[2], 10000 nM	57.8
[3], 10 nM	99.8
[3], 1000 nM	63.4
[3], 10000 nM	37
[4], 10 nM	90
[4], 1000 nM	65.1
[4], 10000 nM	55.9
[5], 3 nM	107
[5], 30 nM	93.7
[5], 100 nM	87.8
[6], 10 nM	89.6
[6], 1000 nM	95
[6], 10000 nM	65.9
[7], 3 nM	85.1
[7], 30 nM	93.4
[7], 100 nM	85.4
[8], 10 nM	92.4
[8], 1000 nM	68.9
[8], 10000 nM	48.1
[9], 10 nM	91.2
[9], 1000 nM	68
[9], 10000 nM	32.6
[10], 100 nM	93.5
[11], 10 nM	95.3
[12], 10 nM	123
[13], 100 nM	86.2
[14], 100 nM	98
[15], 100 nM	84.9
[16], 100 nM	69.8
[17], 100 nM	105
[18], 100 nM	114
[19], 100 nM	92.7
[20], 10 nM	108
[21], 10 nM	97.5
[22], 100 nM	91.6
[23], 100 nM	108
[24], 10 nM	96.9
[25], 10 nM	123
[26], 100 nM	104
[27], 100 nM	68.7

Nc1ccn([C@@H]2O[C@H](CO)[C@@H](O)C2(F)F)c(=O)n1 [Gemcitabine]
Details	normalised viability [%]
[1], 0.3 nM	102
[1], 3 nM	92.1
[1], 10 nM	65.2
[2], 1 nM	98.1
[2], 100 nM	53.1
[2], 1000 nM	52.5
[3], 1 nM	108
[3], 100 nM	47
[3], 1000 nM	40.9
[4], 1 nM	99.7
[4], 100 nM	95.6
[4], 1000 nM	34.9
[5], 0.3 nM	114
[5], 3 nM	91.7
[5], 10 nM	97.9
[6], 1 nM	107
[6], 100 nM	41.6
[6], 1000 nM	43
[7], 0.3 nM	96.6
[7], 3 nM	85.1
[7], 10 nM	85.3
[8], 1 nM	92.8
[8], 100 nM	69.9
[8], 1000 nM	61
[9], 1 nM	106
[9], 100 nM	62.6
[9], 1000 nM	71.5
[10], 10 nM	77.9
[11], 1 nM	106
[12], 1 nM	125
[13], 10 nM	63.7
[14], 10 nM	70.7
[15], 10 nM	94.3
[16], 10 nM	77.4
[17], 10 nM	68.9
[18], 10 nM	88.8
[19], 10 nM	92.6
[20], 1 nM	105
[21], 1 nM	111
[22], 10 nM	67.3
[23], 10 nM	101
[24], 1 nM	93.2
[25], 1 nM	116
[26], 10 nM	84
[27], 10 nM	82.1

CC[C@H](CO)Nc1nc(NCc2ccccc2)c2ncn(C(C)C)c2n1 [Roscovitine]
Details	normalised viability [%]
[1], 3 nM	77.4
[1], 30 nM	85.8
[1], 100 nM	83.5
[2], 10 nM	107
[2], 1000 nM	92.7
[2], 10000 nM	79.4
[3], 10 nM	90.3
[3], 1000 nM	104
[3], 10000 nM	87
[4], 10 nM	92.5
[4], 1000 nM	91.5
[4], 10000 nM	85.1
[5], 3 nM	105
[5], 30 nM	114
[5], 100 nM	109
[6], 10 nM	82.7
[6], 1000 nM	86.1
[6], 10000 nM	76.3
[7], 3 nM	93.3
[7], 30 nM	88.8
[7], 100 nM	90.8
[8], 10 nM	83.8
[8], 1000 nM	84.4
[8], 10000 nM	76.4
[9], 10 nM	111
[9], 1000 nM	91.4
[9], 10000 nM	42.6
[10], 100 nM	88.5
[11], 10 nM	88.8
[12], 10 nM	120
[13], 100 nM	97.3
[14], 100 nM	83.4
[15], 100 nM	96.5
[16], 100 nM	73.1
[17], 100 nM	108
[18], 100 nM	116
[19], 100 nM	89
[20], 10 nM	104
[21], 10 nM	106
[22], 100 nM	82.7
[23], 100 nM	94.9
[24], 10 nM	101
[25], 10 nM	104
[26], 100 nM	98.5
[27], 100 nM	91.1

CO[C@@H]1[C@H](N(C)C(=O)c2ccccc2)C[C@H]2O[C@]1(C)n1c3ccccc3c3c4c(c5c6ccccc6n2c5c31)C(=O)NC4 [Midostaurin]
Details	normalised viability [%]
[1], 3 nM	115
[1], 30 nM	105
[1], 100 nM	129
[2], 10 nM	94.2
[2], 1000 nM	62.7
[2], 10000 nM	57.2
[3], 10 nM	94
[3], 1000 nM	77.4
[3], 10000 nM	39.5
[4], 10 nM	96.3
[4], 1000 nM	74.4
[4], 10000 nM	64.2
[5], 3 nM	108
[5], 30 nM	92.1
[5], 100 nM	87.2
[6], 10 nM	126
[6], 1000 nM	55.4
[6], 10000 nM	44.9
[7], 3 nM	112
[7], 30 nM	111
[7], 100 nM	103
[8], 10 nM	80.4
[8], 1000 nM	59.5
[8], 10000 nM	18.7
[9], 10 nM	129
[9], 1000 nM	31
[9], 10000 nM	15.6
[10], 100 nM	103
[11], 10 nM	107
[12], 10 nM	85.3
[13], 100 nM	82.8
[14], 100 nM	134
[15], 100 nM	85.6
[16], 100 nM	102
[17], 100 nM	112
[18], 100 nM	101
[19], 100 nM	108
[20], 10 nM	91.9
[21], 10 nM	85.7
[22], 100 nM	107
[23], 100 nM	114
[24], 10 nM	103
[25], 10 nM	103
[26], 100 nM	88.1
[27], 100 nM	82.2
